# Source: US10071967B2, “N-cycloalkyl-N-{[2-(1-substitutedcycloalkyl)phenyl]methylene}-(thio)carboxamide derivatives” (BAYER CROPSCIENCE AKTIENGESELLSCHAFT, priority 2013, dated 2018)
# Assay: log P by HPLC on a reversed-phase column (C 18), EEC Directive 79/831 Annex V.A8
# Assay type: physicochemical
# Settings: HPLC reversed-phase C 18, 40° C., 0.1% aqueous formic acid and acetonitrile, gradient 10% to 90% acetonitrile
# Description: In table 1, the log P values were determined in accordance with EEC Directive 79/831 Annex V.A8 by HPLC (High Performance Liquid Chromatography) on a reversed-phase column (C 18), using the method described below: Temperature: 40° C.; Mobile phases: 0.1% aqueous formic acid and acetonitrile; linear gradient from 10% acetonitrile to 90% acetonitrile. Calibration was carried out using unbranched alkan-2-ones (comprising 3 to 16 carbon atoms) with known log P values (determination of the log P values by the retention times using linear interpolation between two successive alkanones). lambda-max-values were determined using UV-spectra from 200 nm to 400 nm and the peak values of the chromatographic signals.
row,logP,Compound
1,5.43,Cc1cc(C(=O)N(Cc2cc(Cl)c(Cl)cc2C2(C)CC2)C2CC2)c(C)o1 [Example 1.159]
2,4.61,Cc1nn(C)c(Cl)c1C(=O)N(Cc1cc(Cl)c(Cl)cc1C1(C)CC1)C1CC1 [Example 1.161]
3,2.61,COCC1(c2ccc(C)cc2CN(C(=O)c2cn(C)nc2C)C2CC2)CC1 [Example 1.157]
4,3.13,COCC1(c2ccc(C)cc2CN(C(=O)c2cn(C)nc2C(F)F)C2CC2)CC1 [Example 1.154]
5,3.81,Cc1nn(C)cc1C(=O)N(Cc1cc(Cl)c(Cl)cc1C1(C)CC1)C1CC1 [Example 1.160]
6,4.03,COCC1(c2ccc(C)cc2CN(C(=O)c2cc(C)oc2C)C2CC2)CC1 [Example 1.155]

# Same assay, conditions: HPLC, reversed-phase column (C 18), 40° C.; 0.1% aqueous formic acid and acetonitrile, linear gradient 10% to 90% acetonitrile
row,Compound,logP
1,Cc1cc(C(=O)N(Cc2cc(Br)ccc2C2(C)CC2)C2CC2)c(C)o1 [Example 1.028],5.08
2,CCC1(c2ccc(C(F)(F)F)cc2CN(C(=O)c2c(C)nn(C)c2F)C2CC2)CC1 [Example 1.084],4.34
3,CCC1(c2ccc(C)cc2CN(C(=O)c2cn(C)nc2C(F)F)C2CC2)CC1 [Example 1.092],4.19
4,Cn1cc(C(=O)N(Cc2cc(Cl)ccc2C2(C)CC2)C2CC2)c(C(F)F)n1 [Example 1.029],3.83
5,CCC1(c2ccc(C)cc2CN(C(=O)c2c(OC(F)F)nn(C)c2F)C2CC2)CC1 [Example 1.098],4.72
6,Cc1ccc(C2(C3CC3)CC2)c(CN(C(=O)c2c(C)nn(C)c2F)C2CC2)c1 [Example 1.108],4.11
7,CCC1(c2ccc(C)cc2CN(C(=O)c2c(C)nn(C)c2Cl)C2CC2)CC1 [Example 1.096],4.36
8,Cc1cc(C(=S)N(Cc2ccc(Cl)cc2C2(C)CC2)C2CC2)c(C)o1 [Example 1.012],5.65
9,CCCC1(c2ccc(C)cc2CN(C(=O)c2cn(C)nc2C(F)F)C2CC2)CC1 [Example 1.114],4.59
10,CCC1(c2cccc(F)c2CN(C(=O)c2c(C)nn(C)c2F)C2CC2)CC1 [Example 1.103],3.63
11,Cc1ccc(C2(C)CC2)c(CN(C(=O)c2cc(C)oc2C(F)F)C2CC2)c1 [Example 1.042],4.62
12,Cc1ccc(C2(C)CC2)c(CN(C(=O)c2c(C(F)(F)F)nn(C)c2Cl)C2CC2)c1 [Example 1.041],4.82
13,CCC1(c2ccc(Cl)cc2CN(C(=O)c2c(OC(F)F)nn(C)c2F)C2CC2)CC1 [Example 1.089],4.78
14,Cc1ccc(C2(C)CC2)c(CN(C(=O)c2c(C(F)(F)F)nn(C)c2F)C2CC2)c1 [Example 1.038],4.61
15,CCCC1(c2cc(Cl)ccc2CN(C(=O)c2cc(C)oc2C(F)F)C2CC2)CC1 [Example 1.111],5.78
16,C#CC1(c2ccc(C)cc2CN(C(=O)c2cn(C)nc2C(F)F)C2CC2)CC1 [Example 1.064],3.31
17,Cn1cc(C(=S)N(Cc2cc(Cl)ccc2C2(C)CC2)C2CC2)c(C(F)F)n1 [Example 1.031],4.37
18,Cc1c(C(=O)N(Cc2cc(Cl)ccc2C2(C)CC2)C2CC2)c(C(F)F)nn1C [Example 1.030],4.06
19,Cc1ccc(C2(C)CC2)c(CN(C(=O)c2c(C(F)F)nn(C(C)(C)C)c2C(F)F)C2CC2)c1 [Example 1.039],5.35
20,Cc1nn(C)c(F)c1C(=O)N(Cc1ccc(F)cc1C1(C)CC1)C1CC1 [Example 1.014],3.46
21,Cc1cc(C(=O)N(Cc2ccc(Cl)cc2C2(C)CC2)C2CC2)c(C)o1 [Example 1.007],4.98
22,COc1ccc(CN(C(=O)c2cn(C)nc2C(F)F)C2CC2)c(C2(C)CC2)c1 [Example 1.017],3.31
23,CCC1(c2cc(Cl)ccc2CN(C(=O)c2cc(C)oc2C(F)F)C2CC2)CC1 [Example 1.072],5.28
24,Cc1nn(C)c(F)c1C(=O)N(Cc1cc(Br)ccc1C1(C)CC1)C1CC1 [Example 1.027],3.99
25,Cc1cc(C(=O)N(Cc2ccc(-c3ccccc3)cc2C2(C)CC2)C2CC2)c(C)o1 [Example 1.021],5.48

row,Compound,logP
1,Cc1ccc(C2(C)CC2)c(CN(C(=O)c2c(C(F)F)nn(C)c2C(F)F)C2CC2)c1 [Example 1.035],4.36
2,Cc1ccc(C2(C)CC2)c(CN(C(=O)c2nn(C)nc2C(F)F)C2CC2)c1 [Example 1.050],4.37
3,CCC1(c2ccc(C)cc2CN(C(=O)c2cc(C)oc2C(F)F)C2CC2)CC1 [Example 1.095],5.22
4,COC1(c2ccccc2CN(C(=O)c2cn(C)nc2C(F)F)C2CC2)CC1 [Example 1.104],2.88
5,Cc1ccc(C2(C)CC2)c(CN(C(=O)c2ccoc2C(F)F)C2CC2)c1 [Example 1.043],4.35
6,CCC1(c2ccccc2CN(C(=O)c2cn(C)nc2C(F)F)C2CC2)CC1 [Example 1.067],3.79
7,CCC1(c2cc(C(F)(F)F)ccc2CN(C(=O)c2cn(C)nc2C(F)F)C2CC2)CC1 [Example 1.077],4.36
8,CCC1(c2cc(C)ccc2CN(C(=O)c2cn(C)nc2C(F)F)C2CC2)CC1 [Example 1.074],4.16
9,Cc1ccc(C2(C)CC2)c(CN(C(=O)c2c(C)nn(C)c2F)C2CC2)c1 [Example 1.040],3.73
10,CCC1(c2ccc(Cl)cc2CN(C(=O)c2c(OC(F)F)nn(C)c2C(F)(F)F)C2CC2)CC1 [Example 1.091],5.36
11,Cn1cc(C(=O)N(Cc2cccc(Cl)c2C2(C)CC2)C2CC2)c(C(F)F)n1 [Example 1.001],3.89
12,Cc1nn(C)cc1C(=O)N(Cc1cccc(F)c1C1(C)CC1)C1CC1 [Example 1.004],2.98
13,Cc1ccc(C2(C)CC2)c(CN(C(=O)c2c(C(F)F)nn(C)c2C)C2CC2)c1 [Example 1.036],3.99
14,CCC1(c2ccc(Cl)cc2CN(C(=O)c2cc(C)oc2C)C2CC2)CC1 [Example 1.088],5.31
15,Cc1cc(C(=O)N(Cc2ccc(Cl)cc2C2(C)CC2)C2CC2)c(C(F)F)o1 [Example 1.008],4.98
16,Cc1ccc(C2(C)CC2)c(CN(C(=O)c2oc(C)nc2C(F)F)C2CC2)c1 [Example 1.046],4.39
17,Cn1cc(C(=O)N(Cc2cc(F)ccc2C2(C)CC2)C2CC2)c(C(F)F)n1 [Example 1.032],3.51
18,Cc1ccc(C2(C)CC2)c(CN(C(=O)c2cn(C)nc2C(F)(F)F)C2CC2)c1 [Example 1.037],4.16
19,Cc1ccc(C2(C)CC2)c(CN(C(=O)c2cc(C)oc2C)C2CC2)c1 [Example 1.047],4.85
20,C#CC1(c2ccc(Cl)cc2CN(C(=O)c2cn(C)nc2C(F)F)C2CC2)CC1 [Example 1.063],3.39
21,CCC1(c2ccc(C(F)(F)F)cc2CN(C(=O)c2cn(C)nc2C(F)F)C2CC2)CC1 [Example 1.085],4.27
22,CCC1(c2ccccc2CN(C(=S)c2cn(C)nc2C(F)F)C2CC2)CC1 [Example 1.068],4.37
23,Cc1ccc(C2(C)CC2)c(CN(C(=O)c2c(C)nn(C)c2Cl)C2CC2)c1 [Example 1.048],3.96
24,Cc1ccc(C2(C3CC3)CC2)c(CN(C(=O)c2cn(C)nc2C(F)F)C2CC2)c1 [Example 1.107],4.11
25,Cn1nc(C(=S)N(Cc2ccc(Cl)cc2C2(C)CC2)C2CC2)c(C(F)F)n1 [Example 1.011],5.11

# Now from value to compound:
row,logP,Compound
1,3.33,Cc1nn(C)c(F)c1C(=O)N(Cc1cc(Cl)ccc1C1(C(F)F)CC1)C1CC1 [Example 1.136]
2,4.90,Cc1ccc(C2(C(C)C)CC2)c(CN(C(=O)c2nn(C)cc2C(F)F)C2CC2)c1 [Example 1.117]
3,4.21,CCOC1(c2ccc(C)cc2CN(C(=O)c2nn(C)nc2C(F)F)C2CC2)CC1 [Example 1.126]
4,3.39,Cn1cc(C(=O)N(Cc2c(Br)cccc2C2(C(F)F)CC2)C2CC2)c(C(F)F)n1 [Example 1.142]
5,3.96,Cc1ccc(C2(C(C)C)CC2)c(CN(C(=O)c2cn(C)nc2C)C2CC2)c1 [Example 1.124]
6,3.09,Cn1cc(C(=O)N(Cc2ccc(F)cc2C2(C(F)F)CC2)C2CC2)c(C(F)F)n1 [Example 1.133]
7,4.54,Cc1ccc(C2(C(C)C)CC2)c(CN(C(=O)c2c(C)nn(C)c2F)C2CC2)c1 [Example 1.122]
8,3.00,Cn1cc(C(=O)N(Cc2ccccc2C2(C(F)F)CC2)C2CC2)c(C(F)F)n1 [Example 1.132]
9,5.62,CCCC1(c2ccc(C)cc2CN(C(=O)c2cc(C)oc2C)C2CC2)CC1 [Example 1.115]
10,4.97,Cc1ccc(C2(CC(C)C)CC2)c(CN(C(=O)c2c(C)nn(C)c2F)C2CC2)c1 [Example 1.144]
11,4.31,Cc1cc(C(=O)N(Cc2ccccc2C2(C(F)(F)F)CC2)C2CC2)c(C)o1 [Example 1.146]
12,4.23,Cn1cc(C(=S)N(Cc2cc(Cl)ccc2C2(C(F)(F)F)CC2)C2CC2)c(C(F)F)n1 [Example 1.149]
13,4.98,Cc1ccc(C2(C(C)C)CC2)c(CN(C(=S)c2cn(C)nc2C(F)F)C2CC2)c1 [Example 1.125]
14,4.82,Cc1cc(C(=O)N(Cc2cc(Cl)ccc2C2(C(F)(F)F)CC2)C2CC2)c(C)o1 [Example 1.148]
15,3.78,Cn1cc(C(=O)N(Cc2cc(Cl)ccc2C2(C(F)(F)F)CC2)C2CC2)c(C(F)F)n1 [Example 1.147]
16,3.81,Cc1ccc(C2(C(F)F)CC2)c(CN(C(=S)c2c(C)nn(C)c2F)C2CC2)c1 [Example 1.141]
17,3.94,CCOC1(c2ccc(C)cc2CN(C(=O)c2nn(C)cc2C(F)F)C2CC2)CC1 [Example 1.130]
18,3.76,Cc1ccc(C2(C(F)F)CC2)c(CN(C(=S)c2cn(C)nc2C(F)F)C2CC2)c1 [Example 1.140]

# Same assay, conditions: Table 2, compounds of formula (I); HPLC C 18, 40° C., 0.1% aqueous formic acid and acetonitrile
row,logP,Compound
1,4.37,Cn1cc(C(=S)N(Cc2cccc3c2C2(CCC3)CC2)C2CC2)c(C(F)F)n1 [Ia.03]
